Measurements as given in patent US4416898A, “Therapeutic uses of methionine” (Pharmuka Laboratoires, priority 1982, dated 1983).

Columns and labels:
[1] = system: dopaminergic receptors (B lymphocytes); details: [^3 H spiperone] = 1 nM; L-methionine 500 mg/kg I.P. twice daily over 5 days; n = 10; *P < 0.01; control 17 ± 3
Experimental: (§1) Since nude mice have no thymus gland, all of the lymphocytes of the spleen thereof are of the B type. Thus, these mice have the advantage of presenting pure B lumphocytes for observation. […] The [^3 H] spiperone bindings to striatal membranes (see Europ. J. Pharmacol. 50, 283, 1978) and intact B lymphocytes (see J. Pharm. Pharmacol. 33, 102, 1981) were performed in the same animal.

[2] = biological target: dopaminergic receptors (striatum) (Mus musculus, UniProt P61168)
Experimental: as §1

[3] = Water solubility and wettability of L-methionine; type: physicochemical; details: flakes
Parkinsonian patients = details: 11 patients, 5 g/day, after 2 weeks, especially on akinesia, tremor and mood
[4] = system: [^3 H] spiperone binding sites (lymphocytes from Parkinsonian patients); details: after treatment, before treatment 7±6
rats = details: IV; cited from earlier work
Parkinsonism = details: with L-Dopa; J. Amer. Med. Assoc. 230, 305, 1974; cited from earlier work

dopaminergic receptors (striatum), sequence (P61168 whole entry): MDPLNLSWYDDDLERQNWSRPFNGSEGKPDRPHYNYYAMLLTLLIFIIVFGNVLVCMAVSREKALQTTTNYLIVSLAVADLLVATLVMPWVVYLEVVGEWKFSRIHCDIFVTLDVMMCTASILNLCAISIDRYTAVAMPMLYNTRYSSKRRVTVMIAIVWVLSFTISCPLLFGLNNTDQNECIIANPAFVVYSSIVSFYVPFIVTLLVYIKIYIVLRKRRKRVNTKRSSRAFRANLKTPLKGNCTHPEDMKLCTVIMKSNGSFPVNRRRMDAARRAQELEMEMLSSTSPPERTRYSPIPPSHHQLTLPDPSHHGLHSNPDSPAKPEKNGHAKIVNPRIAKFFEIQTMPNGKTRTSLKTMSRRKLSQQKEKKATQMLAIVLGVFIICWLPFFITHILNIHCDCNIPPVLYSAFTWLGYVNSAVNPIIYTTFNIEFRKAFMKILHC

In the case of `CSCC[C@H](N)C(=O)O` [L-methionine], the “[^3 H] spiperone binding, B lymphocytes” value [1] is reported as 37 ± 5 fmoles/10^6 cells, the “affinity constant [KD]” value ([2]; KD of [^3 H] spiperone (not of L-methionine), striatum of treated mice, chronic treatment, control 0.17 nM) is reported as 0.20 nM and the “[^3 H] spiperone binding, striatum” value ([2]; [^3 H spiperone] = 0.3 nM, L-methionine 500 mg/kg I.P. twice daily over 5 days, n = 10, **P < 0.001, control 40 ± 1) is reported as 62 ± 3 fmoles/mg protein. For the same compound, the “number of binding sites [Bmax]” value ([2]; [^3 H] spiperone, striatum of treated mice, chronic treatment, control 302) was 491 fmoles/mg protein, the “change in affinity constant [KD]” value ([2]; [^3 H] spiperone, striatum, chronic treatment of L-methionine) was “no change in the affinity constant was detected” and the solubility in water [3] was “slightly soluble in water”. For the same compound, the wettability [3] was “poorly wettable”, the “improvement of Parkinsonism” value (Parkinsonian patients) was “very good improvement” and the “number of [^3 H] spiperone binding sites to lymphocytes” value [4] was 98±19 fentomoles per 10^6 cells. For the same compound, the LD50 (rats) was 4500 mg/kg and the “effect on L-Dopa effectiveness in Parkinsonism” value (Parkinsonism) was “may reverse the effectiveness of L-Dopa”.
